Test results from patent US12590099B2, “Inhibitors of histone deacetylase useful for the treatment or prevention of HIV infection” (Merck Sharp & Dohme LLC, priority 2018, dated 2026).

Columns and labels:
Assay type in all cases: biochemical
[1] = biological target: T1, Recombinant human HDAC3/SMRT heterodimer (Homo sapiens, UniProt O15379); experiment: Human HDAC enzyme inhibitor Fluor-de-Lys assay, HDAC3/SMRT
T1 construct: FLAG (C); made in house

Recombinant human HDAC1 = biological target: T2, Recombinant human HDAC1 (Homo sapiens, UniProt Q13547); experiment: Human HDAC enzyme inhibitor Fluor-de-Lys assay, HDAC1
T2 construct: FLAG (C); made in house
T2 sequence (Q13547 whole entry): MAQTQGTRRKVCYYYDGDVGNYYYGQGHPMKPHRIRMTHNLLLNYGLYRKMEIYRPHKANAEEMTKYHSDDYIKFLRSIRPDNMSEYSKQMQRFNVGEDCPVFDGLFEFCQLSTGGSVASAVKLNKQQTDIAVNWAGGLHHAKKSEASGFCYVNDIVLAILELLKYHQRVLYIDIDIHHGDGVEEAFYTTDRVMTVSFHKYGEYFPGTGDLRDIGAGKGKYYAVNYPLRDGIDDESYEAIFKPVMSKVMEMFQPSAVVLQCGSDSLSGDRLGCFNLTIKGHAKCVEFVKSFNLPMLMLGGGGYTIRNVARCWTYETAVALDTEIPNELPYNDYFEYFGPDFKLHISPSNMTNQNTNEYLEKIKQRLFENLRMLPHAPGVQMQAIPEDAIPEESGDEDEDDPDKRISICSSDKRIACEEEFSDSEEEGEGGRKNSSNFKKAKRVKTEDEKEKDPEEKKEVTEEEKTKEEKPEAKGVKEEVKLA
Procedure, shortened: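 Fluor-de-Lys format at room temperature (23° C.): compounds titrated 10-point, 1:3, preincubated with HDAC before substrate addition; HDAC1 run at 0.3 nM enzyme with 20 μM BML-KI104. Developer with excess HDAC inhibitor ends the reaction, and trypsin-liberated AMC fluorescence is the read-out.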

Recombinant human HDAC8 = biological target: T3, Recombinant human HDAC8 (Homo sapiens, UniProt Q9BY41); experiment: Human HDAC enzyme inhibitor Fluor-de-Lys assay, HDAC8
T3 construct: purchased Enzo Life Sciences BML-SE145-0100
T3 sequence (Q9BY41 1-377): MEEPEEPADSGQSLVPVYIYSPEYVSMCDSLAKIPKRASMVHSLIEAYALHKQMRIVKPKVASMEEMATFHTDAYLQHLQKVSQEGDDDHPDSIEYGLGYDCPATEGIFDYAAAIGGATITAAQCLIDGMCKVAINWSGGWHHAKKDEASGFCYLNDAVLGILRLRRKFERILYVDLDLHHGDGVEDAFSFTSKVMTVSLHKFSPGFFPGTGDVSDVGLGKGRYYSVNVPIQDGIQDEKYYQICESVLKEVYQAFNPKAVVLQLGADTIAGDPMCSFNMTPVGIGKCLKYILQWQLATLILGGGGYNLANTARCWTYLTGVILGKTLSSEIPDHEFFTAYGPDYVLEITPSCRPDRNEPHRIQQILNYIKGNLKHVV

Recombinant human HDAC2 = biological target: T4, Recombinant human HDAC2 (Homo sapiens, UniProt Q92769); experiment: Human HDAC enzyme inhibitor Fluor-de-Lys assay, HDAC2
T4 construct: Full length human HDAC2-FLAG was expressed in baculovirus infected Sf9 cells; FLAG (C); made in house; host or cells: Sf9 (baculovirus)
T4 sequence (Q92769 whole entry): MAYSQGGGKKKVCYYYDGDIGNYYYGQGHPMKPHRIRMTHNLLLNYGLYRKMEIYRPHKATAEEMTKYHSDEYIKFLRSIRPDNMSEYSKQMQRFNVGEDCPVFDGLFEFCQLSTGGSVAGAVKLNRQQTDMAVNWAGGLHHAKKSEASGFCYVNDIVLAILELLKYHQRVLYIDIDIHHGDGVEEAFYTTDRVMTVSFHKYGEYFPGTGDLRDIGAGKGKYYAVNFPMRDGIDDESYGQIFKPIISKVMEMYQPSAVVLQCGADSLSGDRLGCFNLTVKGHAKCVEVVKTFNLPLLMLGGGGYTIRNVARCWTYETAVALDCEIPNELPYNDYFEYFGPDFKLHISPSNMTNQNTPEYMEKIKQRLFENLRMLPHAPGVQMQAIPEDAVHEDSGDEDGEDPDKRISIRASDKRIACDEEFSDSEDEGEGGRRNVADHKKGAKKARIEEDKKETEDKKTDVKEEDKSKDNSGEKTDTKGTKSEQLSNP
Procedure, shortened: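 Fluor-de-Lys format at room temperature (23° C.): compounds titrated 10-point, 1:3, preincubated with HDAC before substrate addition. Developer with excess HDAC inhibitor ends the reaction, and trypsin-liberated AMC fluorescence is the read-out.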

HDAC6 = biological target: T5, HDAC6 (Homo sapiens, UniProt Q9UBN7); experiment: Human HDAC enzyme inhibitor Fluor-de-Lys assay, HDAC6
T5 sequence (Q9UBN7 1-1215): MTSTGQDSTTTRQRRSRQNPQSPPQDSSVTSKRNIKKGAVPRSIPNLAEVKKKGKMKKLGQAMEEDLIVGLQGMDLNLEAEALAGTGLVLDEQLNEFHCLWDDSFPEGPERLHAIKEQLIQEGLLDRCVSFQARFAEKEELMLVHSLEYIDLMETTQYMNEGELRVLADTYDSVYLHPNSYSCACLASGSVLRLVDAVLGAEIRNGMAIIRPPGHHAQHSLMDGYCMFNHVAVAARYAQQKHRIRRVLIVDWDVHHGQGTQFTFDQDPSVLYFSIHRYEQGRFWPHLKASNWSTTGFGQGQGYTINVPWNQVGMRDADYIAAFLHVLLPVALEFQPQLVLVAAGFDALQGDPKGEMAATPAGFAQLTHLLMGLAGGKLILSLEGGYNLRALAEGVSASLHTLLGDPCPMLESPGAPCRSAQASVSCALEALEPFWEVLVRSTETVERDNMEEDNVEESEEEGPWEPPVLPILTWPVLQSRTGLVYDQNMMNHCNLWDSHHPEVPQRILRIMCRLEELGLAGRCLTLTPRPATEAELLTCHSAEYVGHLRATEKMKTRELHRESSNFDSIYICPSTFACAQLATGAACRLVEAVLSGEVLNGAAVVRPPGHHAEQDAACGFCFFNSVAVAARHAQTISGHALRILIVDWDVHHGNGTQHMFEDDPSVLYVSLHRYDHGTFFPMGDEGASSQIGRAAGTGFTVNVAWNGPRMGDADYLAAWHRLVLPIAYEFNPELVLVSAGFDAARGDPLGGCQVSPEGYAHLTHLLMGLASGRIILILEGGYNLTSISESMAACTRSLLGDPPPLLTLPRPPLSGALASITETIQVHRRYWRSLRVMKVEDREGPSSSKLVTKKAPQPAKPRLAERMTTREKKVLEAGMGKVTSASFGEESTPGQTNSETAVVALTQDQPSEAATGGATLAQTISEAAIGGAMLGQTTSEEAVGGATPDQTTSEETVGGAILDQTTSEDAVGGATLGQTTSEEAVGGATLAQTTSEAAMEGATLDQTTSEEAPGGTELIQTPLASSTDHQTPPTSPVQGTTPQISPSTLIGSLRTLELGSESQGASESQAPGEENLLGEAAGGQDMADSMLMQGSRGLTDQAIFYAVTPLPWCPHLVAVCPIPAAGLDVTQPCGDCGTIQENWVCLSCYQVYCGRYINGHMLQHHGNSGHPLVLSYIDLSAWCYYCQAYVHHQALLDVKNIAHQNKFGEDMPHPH

T1 sequence (O15379 whole entry): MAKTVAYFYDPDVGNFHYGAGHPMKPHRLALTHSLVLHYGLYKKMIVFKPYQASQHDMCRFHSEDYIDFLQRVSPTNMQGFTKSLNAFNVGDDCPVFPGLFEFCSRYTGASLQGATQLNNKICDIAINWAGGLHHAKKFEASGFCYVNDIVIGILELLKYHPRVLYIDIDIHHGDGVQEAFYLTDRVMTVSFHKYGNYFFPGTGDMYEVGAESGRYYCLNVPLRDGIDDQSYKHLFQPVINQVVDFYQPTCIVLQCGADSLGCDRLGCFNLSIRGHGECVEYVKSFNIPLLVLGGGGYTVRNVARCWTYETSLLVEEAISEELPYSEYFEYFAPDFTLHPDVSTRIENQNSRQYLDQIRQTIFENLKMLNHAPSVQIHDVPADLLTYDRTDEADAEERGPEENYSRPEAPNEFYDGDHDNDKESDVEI
T1 sequence (Q9Y618 1-899 partner limits assumed): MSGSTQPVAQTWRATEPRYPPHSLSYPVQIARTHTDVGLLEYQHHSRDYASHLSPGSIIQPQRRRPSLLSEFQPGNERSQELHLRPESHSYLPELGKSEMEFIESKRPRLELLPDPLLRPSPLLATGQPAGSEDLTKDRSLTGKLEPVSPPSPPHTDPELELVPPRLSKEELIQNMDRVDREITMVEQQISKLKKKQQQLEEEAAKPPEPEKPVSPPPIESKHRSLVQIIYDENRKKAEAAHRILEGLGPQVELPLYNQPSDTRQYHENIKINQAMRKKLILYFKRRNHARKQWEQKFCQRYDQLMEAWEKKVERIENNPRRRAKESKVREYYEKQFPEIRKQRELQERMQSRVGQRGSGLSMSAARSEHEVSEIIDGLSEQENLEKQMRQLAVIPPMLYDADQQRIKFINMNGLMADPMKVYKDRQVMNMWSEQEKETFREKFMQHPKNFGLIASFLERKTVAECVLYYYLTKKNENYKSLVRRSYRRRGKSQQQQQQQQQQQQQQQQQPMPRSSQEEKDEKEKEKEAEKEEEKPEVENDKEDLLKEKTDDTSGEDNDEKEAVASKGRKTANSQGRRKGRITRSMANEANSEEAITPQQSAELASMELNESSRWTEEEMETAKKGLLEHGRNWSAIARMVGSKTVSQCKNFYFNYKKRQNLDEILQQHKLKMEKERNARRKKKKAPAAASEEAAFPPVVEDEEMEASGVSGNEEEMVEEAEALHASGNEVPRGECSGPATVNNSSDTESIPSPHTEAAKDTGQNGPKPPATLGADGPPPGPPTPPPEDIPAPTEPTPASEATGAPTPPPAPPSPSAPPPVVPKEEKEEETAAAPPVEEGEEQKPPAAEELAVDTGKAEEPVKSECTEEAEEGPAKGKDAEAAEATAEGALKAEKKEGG

Row | Compound | IC50 [1] [nM] | IC50 (Recombinant human HDAC1) [nM] | IC50 (Recombinant human HDAC8) [nM] | IC50 (Recombinant human HDAC2) [nM] | IC50 (HDAC6) [nM]
1 | CCC(=O)CCCCC[C@H](NC(=O)[C@H]1CC12CCN(CC)CC2)c1ncc(-c2ccc(-c3cnc(C4CC4)cn3)cc2)o1 [Compound 129, (1S)—N-[(1S)-1-{5-[4-(5-cyclopropylpyrazin-2-yl)phenyl]-1,3-oxazol-2-yl}-7-oxononyl]-6-ethyl-6-azaspiro[2.5]octane-1-carboxamide] | 14.2 | 27 | 7720 | 89 | > 15000
2 | CC(O)C(=O)CCCCC[C@H](NC(=O)[C@H]1CC12CCN(C)CC2)c1nc(-c2ccc(F)cc2)c[nH]1 (stereo partly drawn) [Compound 134, (1S)—N-{(1S)-1-[4-(4-fluorophenyl)-1H-imidazol-2-yl]-8-hydroxy-7-oxononyl}-6-methyl-6-azaspiro[2.5]octane-1-carboxamide] | 4 | 10.5 | 574 | 51.6 | 1760
3 | CCC(=O)CCCCC[C@H](NC(=O)C1=NOC2(CCN(C)CC2)C1)c1ncc(-c2ccc3nc(C4CC4)ccc3c2)o1 [Compound 135] | 11 | 14.6 | 18300 | 43.5 | > 15000
4 | CCC(=O)CCCCC[C@H](NC(=O)C1=NOC2(CCN(C(C)C)CC2)C1)c1ncc(-c2ccc3nc(C4CC4)ccc3c2)o1 [Compound 136] | 6.41 | 10.3 | 4800 | 31.2 | > 4500
5 | CCC(=O)CCCCC[C@H](NC(=O)[C@H]1CC12CCN(C)CC2)c1ncc(-c2ccc3c(=O)n(C)ccc3c2)o1 [Compound 137] | 4.72 | 7.78 | 33500 | 17.2 | 2760
6 | CCC(=O)CCCCC[C@H](NC(=O)[C@H]1CC12CCN(C)CC2)c1ncc(-c2ccc3oc(=O)ccc3c2)[nH]1 [Compound 138] | 1.62 | 1.32 | 10100 | 7.9 | 1470
7 | CCC(=O)CCCCC[C@H](NC(=O)[C@H]1CC12CCN(C)CC2)c1ncc(-c2ccc(C3CC3)nc2)[nH]1 [Compound 139] | 2.39 | 5.28 | 12000 | 26.1 | 4450
8 | CCC(=O)CCCCC[C@H](NC(=O)[C@H]1CC12CCN(C)CC2)c1ncc(-c2ccc3ncc(Cl)cc3c2)[nH]1 [Compound 140] | 0.95 | 0.97 | 4110 | 4.5 | 611
9 | CCC(=O)CCCCC[C@H](NC(=O)[C@H]1CC[C@]2(CC1)OC(=O)c1ncccc12)c1ncc(-c2cc3ccccc3nc2OC)[nH]1 [Compound 141] | 1.98 | 12.2 | 2110 | 38.4 | 1490
10 | CCC(=O)CCCCC[C@H](NC(=O)[C@H]1CC12CCN(C)CC2)c1ncc(-c2ccc(-c3ccc(C4CC4)nc3)cc2)o1 [Compound 143] | 32 | 65.1 | 13100 | 207 | 3660
11 | CCC(=O)CCCCC[C@H](NC(=O)C1CC2(CCN(C)CC2)C1)c1ncc(-c2ccc3nn(C)cc3c2)[nH]1 [Compound 145] | 2.61 | 5.85 | 4270 | 12.6 | 5760
12 | CCC(=O)CCCCC[C@H](NC(=O)[C@H]1CC12CCN(C)CC2)c1ncc(-c2ccc3nc(C4CC4)sc3c2)[nH]1 [Compound 146] | 0.64 | 1.06 | 7710 | 3.3 | 7730
